The values below come from patent US5244886A, “11β-phenyl-14βH steroids” (Schering Aktiengesellschaft, priority 1988, dated 1993).

For one assay, the system named is mammary gland (tubulo-alveolar gland end pieces). The assay is described as follows: Antiproliferative potency of progesterone antagonists on the mammary gland, bioassay in ovariectomized rats (whole mount, inguinal mammary gland). In kind it is in vivo, rat. The following applies: 3 days, estrone 10 micrograms + progesterone 3 mg, antagonist 1 mg/animal/day, relative to G = 100%. As to the method: The antiproliterative potency of progesterone antagonists on the mammary gland was determined in a bioassay. For this purpose, ovariectomized rats were substituted for 3 days with estrone (10 micrograms) and progesterone (3 mg) and another group at the same time was treated with the following progesterone antagonists (1 mg/animal/day):
The entire inguinal mammary gland was dissected by performance of the "whole mount" technique (Lyons and Johnson, 1952). Of six animals, the number of tubulo-alveolar gland end pieces is determined by 40 times magnification.
The antiproliterative potency is expressed in percent of the inhibition of the tubulo-alveolar end pieces corresponding to the following formula:
(estrone (E)+progesterone (P))-(E+P+G)=100% of treated animals
(E+P)-(test compound H or I)=X%
For `C[C@]12C[C@H](c3ccc(-c4cccnc4)cc3)C3=C4CCC(=O)C=C4CC[C@H]3[C@H]1CC[C@]2(O)CCCO` [H, 11beta-[4-(3-pyridyl)phenyl]-17alpha-hydroxy-17-(3-hydroxypropyl)-14beta-estra-4,9-dien-3-one], the “% inhibition of the tubulo-alveolar end pieces” value was 92%. Still for that read-out and setting: the same measure for `CC#C[C@]1(O)CC[C@H]2[C@@H]3CCC4=CC(=O)CCC4=C3[C@@H](c3ccc(C(C)=O)cc3)C[C@@]21C` [G, 11beta-(4-acetylphenyl)-17beta-hydroxy-17alpha-(1-propinyl)-4,9-estradien-3-one]: 100%; for `CN(C)c1ccc([C@H]2C[C@@]3(C)[C@H](CC[C@]34CCCO4)[C@@H]3CCC4=CC(=O)CCC4=C32)cc1` [I, 11beta-(4-dimethylaminophenyl)-4,5-dihydro-spiro[14beta-estra-4,9-diene-17alpha,2'(3'H)-furan]-3-one]: 13%.

For a further assay, the system named is Antiglucocorticoid effectiveness. The assay can be described thus: Antiglucocorticoid effectiveness in % of RU 486. The following applies: RU 486 effectiveness = 100%. An excerpt: Antiglucocorticoid effectiveness of compounds A to G;
the effectiveness is indicated in % of th
With `COc1ccc2c(c1)C[C@]13CCC(=O)C=C1CC[C@@H]1[C@@H]3[C@@H]2C[C@@]2(C)[C@@H]1CC[C@]2(O)CCCO` [C, 17-hydroxy-17beta-(3-hydroxypropyl)-11beta,19-(4-methoxy-o-phenylene)-14beta-androst-4-en-3-one], the “Antiglucocorticoid effectiveness (in % of RU 486)” value is 0%. Consider `C#CC[C@@]1(O)CC[C@@H]2[C@@H]3CCC4=CC(=O)CCC4=C3[C@@H](c3ccc(C(C)=O)cc3)C[C@@]21C` [B, 11beta-(4-acetylphenyl)-17alpha-hydroxy-17-(prop-2-inyl)-14beta-estra-4,9-dien-3-one], for which the “Antiglucocorticoid effectiveness (in % of RU 486)” value is recorded as 1%. Still for that read-out and setting: the same measure for `CC#C[C@@]1(O)CC[C@@H]2[C@@H]3CCC4=CC(=O)CCC4=C3[C@@H](c3ccc(C(C)=O)cc3)C[C@@]21C` [A, 11beta-(4-acetylphenyl)-17alpha-hydroxy-17-(prop-1-inyl)-14beta-estra-4,9-dien-3-one]: 1%; for `C=Cc1ccc2c(c1)C[C@]13CCC(=O)C=C1CC[C@@H]1[C@@H]3[C@@H]2C[C@@]2(C)[C@@H]1CC[C@]2(O)CCCO` [E, 17-hydroxy-17beta-(3-hydroxypropyl)-11beta,19-(4-vinyl-o-phenylene)-14beta-androst-4-en-3-one]: 1%. Same read-out and setting: the same measure for `CN(C)c1ccc([C@H]2C[C@@]3(C)[C@H](CC[C@]3(O)CCCO)[C@@H]3CCC4=CC(=O)CCC4=C32)cc1` [F, 11beta-(4-dimethylaminophenyl)-17alpha-hydroxy-17-(3-hydroxypropyl)-14beta-estra-4,9-dien-3-one, reference compound]: 2%. The same measure, in the same setting: the same measure for `C[C@]12C[C@@H]3c4ccc(-c5cccnc5)cc4C[C@]45CCC(=O)C=C4CC[C@H]([C@H]35)[C@H]1CC[C@]2(O)CCCO` [D, 17-hydroxy-17beta-(3-hydroxypropyl)-11beta,19-(4-(3-pyridyl)-o-phenylene]-14beta-androst-4-en-3-one]: 0%.
